According to patent US6727226B2 (priority 2000, dated 2004):

What was measured:
[1] = tested on: neurotensin receptors; settings: in vivo; cited from earlier work
[2] = guinea pig, in vivo

Row | Compound | potency in inhibiting pain relative to neurotensin [1] | duration of local anesthesia [2]
1 | contulakin-G | significantly more potent than neurotensin | 
2 | CCCCN1CCCCC1C(=O)Nc1c(C)cccc1C (centres unmarked) [bupivacaine] |  | slightly longer duration thatn lidocaine
